15 compounds from patent US8614324B2, “Filamin A binding anti-inflammatory and analgesic” (priority 2008, dated 2013) can be followed below.

The test system of assay [1] is TNF-α release from primary human astrocytes. The assay is described as follows: LPS-induced cytokine release from primary human astrocytes, TNF-α. It is filed as cell-based. On the procedure: (§1) The following study was undertaken to investigate whether contemplated compounds and (+)NLX affect LPS-induced release of the pro-inflammatory cytokine (IL-1β, IL-6 and TNF-α) release from primary human astrocytes. […]
(§2) Primary astrocytes culture was prepared according to the provider's instructions (Lonza). The adherent astrocytes were trypsinized by 0.25% trypsin-EDTA, then collected and sub-cultured in 12-well plate (1.2 ml/well). […] Vehicle groups were pretreated with 0.1% DMSO only. Following addition of LPS, incubation continued for 24 hours. Culture medium was used as the blank and the levels of cytokines, TNF-α, IL-6 and IL-1β in 200 μl of culture medium were determined. Each well was sampled twice.
(§3) Plates were washed 3 times with ice-cold 50 mM Tris HCl (pH 7.4) and incubated at 30° C. with 200 μl medium derived from the above mentioned conditions. Plates were washed 3 times with ice-cold 50 mM Tris HCl (pH 7.4) and incubated at 30° C. with 0.5 μg/well un-conjugated rabbit anti-anti-INF-α, -IL-6 and -IL-1β for 1 hour. After two 1 minute washes with 50 mM Tris HCl (pH 7.4), each well was incubated in 0.5 μg/well FITC-conjugated anti-rabbit IgG (human and mouse absorbed) for 1 hour at 30° C. Plates were washed twice with 200 μl ice-cold Tris HCl, pH 7.4 and the residual […] signals were determined by multimode plate reader, DTX880 (Beckman).

Assay [2] relates to IL-6 release from primary human astrocytes. The assay is described as follows: LPS-induced cytokine release from primary human astrocytes, IL-6. It is filed as cell-based. On the procedure:
as §1, §2, §3

The subject of assay [3] is IL-1β release from primary human astrocytes. Nature of the assay: LPS-induced cytokine release from primary human astrocytes, IL-1β. Type of assay: cell-based. On the procedure:
as §1, §2, §3

For assay [4], the target named is Bn-VAKGL pentapeptide of filamin A (FLNA) (Homo sapiens, UniProt P21333). The assay is described as follows: FITC-NLX-based FLNA screening assay (FLNA peptide binding assay). As to conditions: 10 nM FITC-NLX. On the procedure:
The final assay volume is 100 μl.
Compounds are tested in triplicate or quadruplicate.

The target in assay [5] is T1, mu opiate receptor (MOR) (Rattus norvegicus, UniProt P33535).
T1 construct: from tissue; host or cells: striatal membrane preparation (rat striatum)
T1 sequence (P33535 whole entry): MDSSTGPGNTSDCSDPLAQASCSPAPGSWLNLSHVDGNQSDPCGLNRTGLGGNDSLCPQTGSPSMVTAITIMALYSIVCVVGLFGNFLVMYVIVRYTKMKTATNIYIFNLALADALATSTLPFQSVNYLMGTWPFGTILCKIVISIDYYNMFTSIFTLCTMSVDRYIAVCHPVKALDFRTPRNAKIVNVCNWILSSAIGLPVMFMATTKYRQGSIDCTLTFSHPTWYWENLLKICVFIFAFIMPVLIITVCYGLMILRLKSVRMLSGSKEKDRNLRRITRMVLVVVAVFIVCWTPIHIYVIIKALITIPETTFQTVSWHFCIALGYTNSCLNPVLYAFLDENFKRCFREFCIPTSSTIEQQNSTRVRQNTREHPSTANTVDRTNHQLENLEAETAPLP
The assay is described as follows: MOR agonist activity, [35S]GTPγS binding assay using striatal membranes. It is filed as biochemical. The arrangement: MOR agonist activity, [35S]GTPγS binding to Gαo: reference not given here. As to conditions: for % DAMGO (0.1 μM): 0.1 μM compound relative to DAMGO; for % DAMGO + BFNA: 1 μM compound + BFNA relative to DAMGO + BFNA; for % DAMGO (1 μM): 1 μM compound relative to DAMGO. On the procedure: To assess the mu opiate receptor (MOR) agonist activity of positive compounds from the FLNA screening, compounds were tested in a [^35S]GTPγS binding assay using striatal membranes.
Striatal tissue was homogenized in 10 volumes of ice cold 25 mM HEPES buffer, pH 7.4, which contained 1 mM EGTA, 100 mM sucrose, 50 μg/ml leupeptin, 0.04 mM PMSF, 2 μg/ml soybean trypsin inhibitor and 0.2% 2-mercaptoethanol. The homogenates were centrifuged at 800×g for 5 minutes and the supernatants were centrifuged at 49,000×g for 20 minutes. The resulting pellets were suspended in 10 volume of reaction buffer, which contained 25 mM HEPES, pH 7.5, 100 mM NaCl, 50 μg/ml leupeptin, 2 μg/ml soybean trypsin inhibitor, 0.04 mM PMSF and 0.02% […].
The resultant striatal membrane preparation (200 μg) was admixed and maintained (incubated) at 30° C. for 5 minutes in reaction buffer as above that additionally contained 1 mM MgCl2 and 0.5 nM [^35S]GTPγS (0.1 μCi/assay, PerkinElmer Life and Analytical Sciences) in a total volume of 250 μl and continued for 5 minutes in the absence or presence of 0.1-10 μM of an assayed compound of interest. The reaction was terminated by dilution with 750 μl of ice-cold reaction buffer that contained 20 mM MgCl2 and 1 mM EGTA and immediate centrifugation at 16,000×g for 5 minutes.
The resulting pellet was solubilized by sonicating for 10 seconds in 0.5 ml of immunoprecipitation buffer containing 0.5% digitonin, 0.2% sodium cholate and 0.5% NP-40. Normal rabbit serum (1 μl) was added to 1 ml of lysate and incubated at 25° C. for 30 minutes. Nonspecific immune complexes were removed by incubation with 25 μl of protein A/G-conjugated agarose beads at 25° C. for 30 minutes followed by centrifugation at 5,000×g at 4° C. for 5 minutes. The supernatant was divided and separately incubated at 25° C. for 30 minutes with antibodies raised against Gαo proteins (1:1,000 dilutions).
The immunocomplexes so formed were collected by incubation at 25° C. for 30 minutes with 40 μl of agarose-conjugated protein A/G beads and centrifugation at 5,000×g at 4° C. for 5 minutes. The pellet was washed and suspended in buffer containing 50 mM Tris-HCl, pH 8.0, and 1% NP-40. The radioactivity in the suspension was determined by liquid scintillation spectrometry. […] DAMGO (H-Tyr-D-Ala-Gly-N-MePhe-Gly-OH; 1 or 10 μM) was used as a positive control.

A short description of assay [6]: Mouse hot-water tail-flick test. As to conditions: orally administered, 56 mg/kg. It is filed as in vivo. On the procedure: The mouse “tail flick” test was used to assay the relative antinociceptive activity of compositions containing a compound to be assayed. This assay was substantially that disclosed by Xie et al., 2005 J. Neurosci 25:409-416.
The mouse hot-water tail-flick test was performed by placing the distal third of the tail in a water bath maintained at 52° C. The latency until tail withdrawal from the bath was determined and compared among the treatments. A 10 second cutoff was used to avoid tissue damage. Data are converted to percentage of antinociception by the following formula: (response latency−baseline latency)/(cutoff−baseline latency)×100 to generate dose-response curves. […] Relative potency was determined as a ratio of the A50 values.
To assess tolerance to the antinociceptive effect, the compound was administered twice daily for 7 days at an A90 dose (dose that results in a 90% antinociceptive effect in the 52° C. warm-water tail-flick test), and the tail-flick test was performed daily after the a.m. dose. […] Assays were typically carried out separately using at least 32 and 56 mg/kg dosages, with some assays also separately carried out at 18 and 100 mg/kg.

[7] abbreviates: 10 pM compound 2 hours prior to LPS (1 μg/ml) and continued 24 hours.
[8] abbreviates: 1 nM compound 2 hours prior to LPS (1 μg/ml) and continued 24 hours.
[9] abbreviates: 0.1 μM compound, striatal membranes.
Where [10] appears, read: 1 μM compound + BFNA (1 μM β-funaltrexamine).
The mark [11] stands for this setting: 1 μM compound, striatal membranes.

Structures are written as SMILES.

Consider `C=CCN1CC[C@]23c4c5ccc(O)c4O[C@H]2C(=O)CC[C@]3(O)[C@H]1C5` [(+)Naloxone, (+)naloxone, reference compound], for which the “TNF-α Average % (±SEM)” value in assay [1] (setting [7]) was 58.6 (2.0) %; in assay [1] (setting [8]) it was 9.2 (6.0) %. Also, the “IL-6 Average % (±SEM)” value in assay [2] (setting [7]) is 56.9 (4.4) %; in assay [2] (setting [8]), 6.8 (4.3) %. Further, the entries for the “IL-1β Average % (±SEM)” value in assay [3] (setting [7]) and in assay [3] (setting [8]) were 75.9 (4.5) % and 10.5 (4.8) %, respectively.
Regarding `COc1ccc(S(=O)(=O)N2CCOC23CCN(C(=O)OC(C)(C)C)CC3)cc1` [Compound C0043], the “Percent inhibition of FITC-NLX binding” value in assay [4] (0.01 μM compound) is given as 43.9%; in assay [4] (0.1 μM compound), 51.3%; in assay [4] (1 μM compound), 58.0%. Further, in assay [5], the “% DAMGO (0.1 μM)” value is 103.8%. The “MOR agonist activity, [35S]GTPγS binding to Gαo” value (shortened to “MOR agonist activity”) in assay [5] (setting [9]) is 175.4%; in assay [5] (setting [10]), 83.3%; in assay [5] (setting [11]), 242.6%. For the same compound, the “% DAMGO + BFNA” value in assay [5] is listed as 501.8%. Also, the “% DAMGO (1 μM)” value in assay [5] was 110.9%.
In the case of `O=[N+]([O-])c1ccc(S(=O)(=O)N2CCC3(CC2)NCCCO3)cc1` [Compound C0045], the “Percent inhibition of FITC-NLX binding” value in assay [4] (0.01 μM compound) is listed as 39.1%; in assay [4] (0.1 μM compound), 48.9%; in assay [4] (1 μM compound), 53.7%. For the same compound, the “% DAMGO (0.1 μM)” value in assay [5] came out at 88.3%. For the same compound, the “MOR agonist activity” value in assay [5] (setting [9]) turned out to be 149.2%; in assay [5] (setting [10]), 105.3%; in assay [5] (setting [11]), 238.8%. Moreover, in assay [5], the “% DAMGO + BFNA” value was 634.3%. Besides, the “% DAMGO (1 μM)” value in assay [5] is on record as 109.1%.
Take `CS(=O)(=O)c1ccc(S(=O)(=O)N2CCOC23CCNCC3)cc1` [Compound C0116M]: the “MOR agonist activity” value in assay [5] (setting [9]) amounted to 258.4%; in assay [5] (setting [10]) it was 152.0%; in assay [5] (setting [11]) it was 302.8%.
The like results for `CC(=O)c1ccc(S(=O)(=O)N2CC(CN(C)C)OC23CCNCC3)cc1` (centres unmarked) [Compound C0118M] were, in that order, 166.2%, 79.2% and 261.5%.
The like results for `CC(=O)c1ccc(S(=O)(=O)N2C(Cc3c[nH]cn3)C(=O)NC23CCNCC3)cc1` (centres unmarked) [Compound C0119M] were, in that order, 105.7%, 35.1% and 167.8%.
For `O=C1CN(Cc2ccccc2)C2(CCN(CC3CC3)CC2)N1` [Compound C0125M], in that order: 168.6%, 159.7% and 195.2%.
For `CS(=O)(=O)c1ccc(S(=O)(=O)N2CCOC23CCN(CC2CC2)CC3)cc1` [Compound C0126M], the “MOR agonist activity” value in assay [5] (setting [9]) is 181.8%; in assay [5] (setting [10]) it was 108.5%; in assay [5] (setting [11]) it was 265.3%.
For `CC(=O)c1ccc(S(=O)(=O)N2CC(CN(C)C)OC23CCN(CC2CC2)CC3)cc1` (centres unmarked) [Compound C0128M], in that order: 197.8%, 63.9% and 286.0%.
The like results for `COc1ccc(S(=O)(=O)N2CCOC23CCN(C(C)C)CC3)cc1` [Compound C0133M] were, in that order, 139.4%, 72.4% and 214.8%.
Take `Cc1ccc(S(=O)(=O)N2CCOC23CCN(CC2CC2)CC3)cc1` [Compound C0134M]: the “MOR agonist activity” value is 158.5% in assay [5] (setting [9]), 46.6% in assay [5] (setting [10]) and 207.3% in assay [5] (setting [11]).
The like results for `CCc1ccc(S(=O)(=O)N2CCOC23CCN(CC2CC2)CC3)cc1` [Compound C0135M] were, in that order, 161.3%, 113.3% and 310.1%.
The like results for `COc1ccc(S(=O)(=O)N2CCC3(CC2)NCCC(=O)N3)cc1` [Compound C0142M] were, in that order, 143.7%, 98.7% and 192.5%.
The like results for `C[C@@H](NC(=O)[C@@H](N)Cc1ccc(O)cc1)C(=O)NCC(=O)N(C)[C@@H](Cc1ccccc1)C(=O)NCCO` [DAMGO, reference compound] were, in that order, 168.5%, 53.2% and 266.1%.
On to `CN1CC[C@]23c4c5ccc(O)c4O[C@H]2[C@@H](O)C=C[C@H]3[C@H]1C5` [morphine, reference compound], for which, in assay [6], the “Maximum Antinociception (%)” value is given as 43% and the “Time to Max.” value was 20 min.
